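Growth conditions: 96-well plates. Treatment: test compound, 48 hours, 5 concentrations. Analysis: linear interpolation between bracketing concentrations; unreached endpoints set to highest concentration. At the TGI there is no net growth.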
Assays:
Test in all cases: NCI tumour cell line growth inhibition, 48 h
SF-295 CNS = test system: SF-295 CNS
SK-MEL-5 melanoma = test system: SK-MEL-5 melanoma
M14 melanoma = test system: M14 melanoma
UACC-257 melanoma = test system: UACC-257 melanoma
LOX IMVI melanoma = test system: LOX IMVI melanoma
DMS 114 small cell lung = test system: DMS 114 small cell lung
SK-MEL-2 melanoma = test system: SK-MEL-2 melanoma
HOP-18 NSCLC = test system: HOP-18 NSCLC
OVCAR-4 ovarian = test system: OVCAR-4 ovarian
HOP-92 NSCLC = test system: HOP-92 NSCLC
SK-OV-3 ovarian = test system: SK-OV-3 ovarian
EKVX NSCLC = test system: EKVX NSCLC
HL-60(TB) leukemia = test system: HL-60(TB) leukemia
DLD-1 colon = test system: DLD-1 colon
CAKI-1 renal = test system: CAKI-1 renal
HCC-2998 colon = test system: HCC-2998 colon
RPMI-8226 leukemia = test system: RPMI-8226 leukemia
SW-620 colon = test system: SW-620 colon
NCI-H226 lung = test system: NCI-H226 lung
NCI-H460 lung = test system: NCI-H460 lung
SNB-78 CNS = test system: SNB-78 CNS
A498 renal = test system: A498 renal
U251 CNS = test system: U251 CNS
SF-539 CNS = test system: SF-539 CNS
SNB-75 CNS = test system: SNB-75 CNS
OVCAR-5 ovarian = test system: OVCAR-5 ovarian
HT29 colon = test system: HT29 colon
SF-268 CNS = test system: SF-268 CNS
SK-MEL-28 melanoma = test system: SK-MEL-28 melanoma
UACC-62 melanoma = test system: UACC-62 melanoma
KM12 colon = test system: KM12 colon
UO-31 renal = test system: UO-31 renal
M19-MEL melanoma = test system: M19-MEL melanoma
HCT-15 colon = test system: HCT-15 colon
OVCAR-8 ovarian = test system: OVCAR-8 ovarian
KM20L2 colon = test system: KM20L2 colon
HOP-62 NSCLC = test system: HOP-62 NSCLC
SN12C renal = test system: SN12C renal
IGROV1 ovarian = test system: IGROV1 ovarian
MOLT-4 leukemia = test system: MOLT-4 leukemia
LXFL 529 NSCLC = test system: LXFL 529 NSCLC
XF 498 CNS = test system: XF 498 CNS
DMS 273 small cell lung = test system: DMS 273 small cell lung
CCRF-CEM leukemia = test system: CCRF-CEM leukemia
TK-10 renal = test system: TK-10 renal
RXF 393 renal = test system: RXF 393 renal
786-0 renal = test system: 786-0 renal
MALME-3M melanoma = test system: MALME-3M melanoma
NCI-H23 lung = test system: NCI-H23 lung
A549 NSCLC = test system: A549 NSCLC
OVCAR-3 ovarian = test system: OVCAR-3 ovarian
COLO 205 colon = test system: COLO 205 colon
K-562 leukemia = test system: K-562 leukemia
ACHN renal = test system: ACHN renal
HCT-116 colon = test system: HCT-116 colon
SR leukemia = test system: SR leukemia
NCI-H522 lung = test system: NCI-H522 lung
SNB-19 CNS = test system: SNB-19 CNS
RXF-631 renal = test system: RXF-631 renal

Measured: TGI

O=C1[C@@H]2C(c3c(Cl)cccc3Cl)=NO[C@@H]2C(=O)N1c1ccc(Cc2ccc(N3C(=O)[C@H]4C(c5c(Cl)cccc5Cl)=NO[C@H]4C3=O)cc2)cc1
not listed: HCT-116 colon | SR leukemia | NCI-H522 lung | SNB-19 CNS | RXF-631 renal
> 100 µM: all other assays above

COc1cc2oc(-c3ccc(O)cc3)cc(=O)c2c(O)c1C1OC(CO)C(O)C(O)C1O (configuration not stated)
not listed: HOP-92 NSCLC | RXF 393 renal | RXF-631 renal
> 100 µM: all other assays above

COC(=O)/C=C(/C(=O)OC)C1(C)c2cc(C(=O)OC)c(C(=O)OC)c(N)c2C(=N)N1c1ccccc1 (configuration not stated)
76.8 µM: IGROV1 ovarian
38.3 µM: OVCAR-3 ovarian
29.4 µM: DLD-1 colon
81.4 µM: SK-MEL-2 melanoma
57.6 µM: RPMI-8226 leukemia
29.7 µM: COLO 205 colon
28.4 µM: XF 498 CNS
35 µM: LOX IMVI melanoma
41 µM: SF-268 CNS
48.4 µM: SN12C renal
29.3 µM: HCT-116 colon
27.8 µM: NCI-H522 lung
33.6 µM: M14 melanoma
56.1 µM: CAKI-1 renal
51.6 µM: HCC-2998 colon
48.9 µM: U251 CNS | SF-539 CNS
58.5 µM: SR leukemia
46.2 µM: MOLT-4 leukemia
50.4 µM: CCRF-CEM leukemia
34.8 µM: KM20L2 colon
37.9 µM: OVCAR-8 ovarian
43.6 µM: HOP-92 NSCLC
89.9 µM: NCI-H226 lung
31.6 µM: DMS 114 small cell lung
81 µM: SNB-75 CNS
45.6 µM: NCI-H23 lung
31.7 µM: HT29 colon
36.5 µM: SK-MEL-28 melanoma
32.9 µM: KM12 colon
41.9 µM: M19-MEL melanoma
48.7 µM: ACHN renal
36.1 µM: RXF 393 renal
51.7 µM: K-562 leukemia
38.6 µM: LXFL 529 NSCLC
41.2 µM: UACC-62 melanoma
74.4 µM: 786-0 renal
62 µM: HOP-18 NSCLC
47.1 µM: UO-31 renal
32.7 µM: MALME-3M melanoma
40.2 µM: SF-295 CNS
32.6 µM: HL-60(TB) leukemia
88.9 µM: A498 renal
86.9 µM: RXF-631 renal
not listed: SK-MEL-5 melanoma | UACC-257 melanoma | OVCAR-4 ovarian | SW-620 colon | SNB-78 CNS
> 100 µM: all other assays above

COc1ccc(CNc2cnc3ccc(N)cc3n2)cc1
11.7 µM: HCT-116 colon
34.6 µM: COLO 205 colon
not listed: HOP-92 NSCLC | SK-OV-3 ovarian | A498 renal | U251 CNS | UACC-62 melanoma | KM20L2 colon | IGROV1 ovarian | LXFL 529 NSCLC | RXF 393 renal | SR leukemia | RXF-631 renal
> 100 µM: all other assays above
